Experimental data published in patent publication US10485235B2, “Aryloxypyrimidinyl ethers as herbicides” (FMC Corporation, priority 2015, dated 2019).

Legend:
Assay type in all cases: in vivo
[1] = tested on: barnyardgrass (Echinochloa crus-galli); experiment: Test A postemergence, barnyardgrass; conditions: postemergence, 0 to 100 scale, 0 is no effect, 100 is complete control, approximately 10 days
Summary of the method: (§1)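 Compounds, formulated in a surfactant-containing solvent mixture that is non-phytotoxic, are sprayed onto soil after seeding (preemergence) or onto young plants, one to two leaves and 2 to 10 cm high (postemergence). Response is scored visually after around 10 days, where 0 means no effect and 100 means complete control.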

[2] = tested on: corn (Zea mays); experiment: Test A postemergence, corn; conditions: postemergence, 0 to 100 scale, 0 is no effect, 100 is complete control, approximately 10 days
Summary of the method: as §1

[3] = tested on: sedge, umbrella (small-flower umbrella sedge, Cyperus difformis); experiment: Test B flooded paddy test, umbrella sedge; conditions: 250 g ai/ha, Flood; visual rating after 13 to 15 days; scale 0 to 100, 0 is no effect, 100 is complete control
Summary of the method: (§2)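 Plants grown to the 2-leaf stage; pots flooded to 3 cm above soil and compounds applied directly into the paddy water, depth held throughout. After 13 to 15 days in the greenhouse, injury was rated visually against untreated controls on a 0–100 scale (0 no effect, 100 complete control).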

[4] = tested on: wheat (Triticum aestivum); experiment: Test A postemergence, wheat; conditions: postemergence, 0 to 100 scale, 0 is no effect, 100 is complete control, approximately 10 days
Summary of the method: as §1

[5] = tested on: galium (catchweed bedstraw, Galium aparine); experiment: Test A postemergence, galium; conditions: postemergence, 0 to 100 scale, 0 is no effect, 100 is complete control, approximately 10 days
Summary of the method: as §1

[6] = tested on: kochia (Kochia scoparia); experiment: Test A preemergence, kochia; conditions: Preemergence, 0 to 100 scale (0 no effect, 100 complete control)
Summary of the method: as §1

[7] = tested on: ducksalad (Heteranthera limosa); experiment: Test B flooded paddy test, ducksalad; conditions: 250 g ai/ha, Flood; visual rating after 13 to 15 days; scale 0 to 100, 0 is no effect, 100 is complete control
Summary of the method: as §2

[8] = tested on: ryegrass, Italian (Italian ryegrass, Lolium multiflorum); experiment: Test A postemergence, Italian ryegrass; conditions: postemergence, 0 to 100 scale, 0 is no effect, 100 is complete control, approximately 10 days
Summary of the method: as §1

[9] = tested on: barnyardgrass (Echinochloa crus-galli); experiment: Test B flooded paddy test, barnyardgrass; conditions: 250 g ai/ha, Flood; visual rating after 13 to 15 days; scale 0 to 100, 0 is no effect, 100 is complete control
Summary of the method: as §2

[10] = tested on: barnyardgrass (Echinochloa crus-galli); experiment: Test A preemergence, barnyardgrass; conditions: Preemergence, 0 to 100 scale (0 no effect, 100 complete control)
Summary of the method: as §1

[11] = tested on: blackgrass (Alopecurus myosuroides); experiment: Test A postemergence, blackgrass; conditions: postemergence, 0 to 100 scale, 0 is no effect, 100 is complete control, approximately 10 days
Summary of the method: as §1

[12] = tested on: kochia (Kochia scoparia); experiment: Test A postemergence, kochia; conditions: postemergence, 0 to 100 scale, 0 is no effect, 100 is complete control, approximately 10 days
Summary of the method: as §1

[13] = tested on: rice (Oryza sativa); experiment: Test B flooded paddy test, rice; conditions: 250 g ai/ha, Flood; visual rating after 13 to 15 days; scale 0 to 100, 0 is no effect, 100 is complete control
Summary of the method: as §2

[14] = tested on: ragweed (common ragweed, Ambrosia elatior); experiment: Test A postemergence, ragweed; conditions: postemergence, 0 to 100 scale, 0 is no effect, 100 is complete control, approximately 10 days
Summary of the method: as §1

[15] = tested on: pigweed (Amaranthus retroflexus); experiment: Test A postemergence, pigweed; conditions: postemergence, 0 to 100 scale, 0 is no effect, 100 is complete control, approximately 10 days
Summary of the method: as §1

[16] = tested on: ryegrass, Italian (Italian ryegrass, Lolium multiflorum); experiment: Test A preemergence, Italian ryegrass; conditions: Preemergence, 0 to 100 scale (0 no effect, 100 complete control)
Summary of the method: as §1

[17] = tested on: pigweed (Amaranthus retroflexus); experiment: Test A preemergence, pigweed; conditions: Preemergence, 0 to 100 scale (0 no effect, 100 complete control)
Summary of the method: as §1

[18] = tested on: foxtail, giant (giant foxtail, Setaria faberii); experiment: Test A postemergence, giant foxtail; conditions: postemergence, 0 to 100 scale, 0 is no effect, 100 is complete control, approximately 10 days
Summary of the method: as §1

[19] = tested on: foxtail, giant (giant foxtail, Setaria faberii); experiment: Test A preemergence, giant foxtail; conditions: Preemergence, 0 to 100 scale (0 no effect, 100 complete control)
Summary of the method: as §1

[20] = tested on: ragweed (common ragweed, Ambrosia elatior); experiment: Test A preemergence, ragweed; conditions: Preemergence, 0 to 100 scale (0 no effect, 100 complete control)
Summary of the method: as §1

SMILES | Plant response rating, Barnyardgrass ([1]; 125 g ai/ha) | Plant response rating, Corn ([2]; 125 g ai/ha) | Plant response rating, Sedge, Umbrella [3] | Plant response rating, Wheat ([4]; 125 g ai/ha) | Plant response rating, Galium ([5]; 125 g ai/ha) | Plant response rating, Kochia ([6]; 125 g ai/ha) | Plant response rating, Ducksalad [7] | Plant response rating, Ryegrass, Italian ([8]; 125 g ai/ha) | Plant response rating, Barnyardgrass [9] | Plant response rating, Barnyardgrass ([10]; 125 g ai/ha) | Plant response rating, Blackgrass ([11]; 125 g ai/ha) | Plant response rating, Kochia ([12]; 125 g ai/ha) | Plant response rating, Rice [13] | Plant response rating, Ragweed ([14]; 125 g ai/ha) | Plant response rating, Pigweed ([15]; 125 g ai/ha) | Plant response rating, Ryegrass, Italian ([16]; 125 g ai/ha) | Plant response rating, Pigweed ([17]; 125 g ai/ha) | Plant response rating, Foxtail, Giant ([18]; 125 g ai/ha) | Plant response rating, Foxtail, Giant ([19]; 125 g ai/ha) | Plant response rating, Ragweed ([20]; 125 g ai/ha) | other results
N#Cc1cccc(Oc2ncc(Cl)cn2)c1OCCCCC(F)(F)F [Compound 32] | 100 | 20 | 100 | 30 | 100 | 90 | 90 | 30 | 30 | 100 | 50 | 100 | 40 | 10 | 100 | 30 | 100 | 80 | 100 | 10 | Plant response rating, Barnyardgrass ([1]; 31 g ai/ha): 60; Plant response rating, Corn ([2]; 31 g ai/ha): 10; Plant response rating, Wheat ([4]; 31 g ai/ha): 20; Plant response rating, Galium ([5]; 31 g ai/ha): 70; Plant response rating, Kochia ([6]; 31 g ai/ha): 30; Plant response rating, Ryegrass, Italian ([8]; 31 g ai/ha): 10; Plant response rating, Barnyardgrass ([10]; 31 g ai/ha): 30; Plant response rating, Blackgrass ([11]; 31 g ai/ha): 30; Plant response rating, Kochia ([12]; 31 g ai/ha): 100; Plant response rating, Ragweed ([14]; 31 g ai/ha): 10; Plant response rating, Pigweed ([15]; 31 g ai/ha): 100; Plant response rating, Ryegrass, Italian ([16]; 31 g ai/ha): 10; Plant response rating, Pigweed ([17]; 31 g ai/ha): 100; Plant response rating, Foxtail, Giant ([18]; 31 g ai/ha): 50; Plant response rating, Foxtail, Giant ([19]; 31 g ai/ha): 100; Plant response rating, Ragweed ([20]; 31 g ai/ha): 0
FC(F)(F)CCCCOc1c(Br)cccc1Oc1ncc(Cl)cn1 [Compound 33] | 60 | 20 | 95 | 10 | 90 | 20 | 30 | 20 | 0 | 50 | 40 | 90 | 0 | 10 | 100 | 20 | 90 | 60 | 100 | 0 | Plant response rating, Barnyardgrass ([1]; 31 g ai/ha): 10; Plant response rating, Corn ([2]; 31 g ai/ha): 10; Plant response rating, Wheat ([4]; 31 g ai/ha): 0; Plant response rating, Galium ([5]; 31 g ai/ha): 50; Plant response rating, Kochia ([6]; 31 g ai/ha): 0; Plant response rating, Ryegrass, Italian ([8]; 31 g ai/ha): 0; Plant response rating, Barnyardgrass ([10]; 31 g ai/ha): 10; Plant response rating, Blackgrass ([11]; 31 g ai/ha): 10; Plant response rating, Kochia ([12]; 31 g ai/ha): 50; Plant response rating, Ragweed ([14]; 31 g ai/ha): 0; Plant response rating, Pigweed ([15]; 31 g ai/ha): 80; Plant response rating, Ryegrass, Italian ([16]; 31 g ai/ha): 0; Plant response rating, Pigweed ([17]; 31 g ai/ha): 10; Plant response rating, Foxtail, Giant ([18]; 31 g ai/ha): 20; Plant response rating, Foxtail, Giant ([19]; 31 g ai/ha): 60; Plant response rating, Ragweed ([20]; 31 g ai/ha): 0
CC(COc1c(C#N)cccc1Oc1ncc(Cl)cn1)CC(F)(F)F (stereo not drawn) [Compound 34] | 20 | 20 | 75 | 10 | 70 | 80 | 40 | 0 | 0 | 70 | 20 | 90 | 20 | 10 | 100 | 10 | 100 | 40 | 100 | 0 | Plant response rating, Barnyardgrass ([1]; 500 g ai/ha): 50; Plant response rating, Corn ([2]; 500 g ai/ha): 40; Plant response rating, Wheat ([4]; 500 g ai/ha): 20; Plant response rating, Galium ([5]; 500 g ai/ha): 90; Plant response rating, Kochia ([6]; 500 g ai/ha): 100; Plant response rating, Ryegrass, Italian ([8]; 500 g ai/ha): 20; Plant response rating, Barnyardgrass ([10]; 500 g ai/ha): 100; Plant response rating, Blackgrass ([11]; 500 g ai/ha): 60; Plant response rating, Kochia ([12]; 500 g ai/ha): 100; Plant response rating, Ragweed ([14]; 500 g ai/ha): 10; Plant response rating, Pigweed ([15]; 500 g ai/ha): 100; Plant response rating, Ryegrass, Italian ([16]; 500 g ai/ha): 40; Plant response rating, Pigweed ([17]; 500 g ai/ha): 100; Plant response rating, Foxtail, Giant ([18]; 500 g ai/ha): 90; Plant response rating, Foxtail, Giant ([19]; 500 g ai/ha): 100; Plant response rating, Ragweed ([20]; 500 g ai/ha): 10
FC(F)=C(F)CCOc1c(Br)cccc1Oc1ncc(Cl)cn1 [Compound 38] | 30 | 20 | 100 | 0 | 50 | 70 | 75 | 10 | 0 | 70 | 10 | 70 | 0 | 10 | 80 | 10 | 100 | 40 | 100 | 0 | Plant response rating, Barnyardgrass ([1]; 31 g ai/ha): 10; Plant response rating, Corn ([2]; 31 g ai/ha): 10; Plant response rating, Wheat ([4]; 31 g ai/ha): 0; Plant response rating, Galium ([5]; 31 g ai/ha): 10; Plant response rating, Kochia ([6]; 31 g ai/ha): 0; Plant response rating, Ryegrass, Italian ([8]; 31 g ai/ha): 0; Plant response rating, Barnyardgrass ([10]; 31 g ai/ha): 10; Plant response rating, Blackgrass ([11]; 31 g ai/ha): 0; Plant response rating, Kochia ([12]; 31 g ai/ha): 20; Plant response rating, Ragweed ([14]; 31 g ai/ha): 0; Plant response rating, Pigweed ([15]; 31 g ai/ha): 40; Plant response rating, Ryegrass, Italian ([16]; 31 g ai/ha): 0; Plant response rating, Pigweed ([17]; 31 g ai/ha): 0; Plant response rating, Foxtail, Giant ([18]; 31 g ai/ha): 10; Plant response rating, Foxtail, Giant ([19]; 31 g ai/ha): 30; Plant response rating, Ragweed ([20]; 31 g ai/ha): 0
